Where a SMILES comes first, the peptide text is derived from it. Where no end group is shown, it is not given here. [ ]: non-standard residue; d: D form.

By MIC is commonly meant the smallest concentration in the dilution series that meets the test's criterion for growth inhibition. A word on the IC50: it is the concentration at which inhibition is half-maximal.

For series [1], the system named is MRSA (NCTC 12493). It is filed as cell-based, methicillin-resistant Staphylococcus aureus. The conditions noted are these: NCTC 12493, 24 h. The text has this: (§1) Seven microorganism strains were used to preliminarily evaluate the antimicrobial activity of PSTO2 and its analogues, including Staphylococcus aureus (S. aureus) (ATCC® 6538), methicillin-resistant Staphylococcus aureus (MRSA) (NCTC® 12493), Enterococcus faecalis (E. faecalis) (NCTC® 12697), E. coli (ATCC® 8739), Klebsiella pneumonia (K. pneumonia) (ATCC® 43816), Pseudomonas aeruginosa (P. aeruginosa) (ATCC® CRM 9027), Acinetobacter baumanni (A. baumanni) (BAA® 747), and Candida albicans (C. albicans) (ATCC® 10231). In this study, the strains were cultured in Mueller–Hinton broth (MHB), nutrient broth (NB), and yeast–peptone–dextrose broth (YPD-B) correspondingly at 37 °C, with shaking at 120 rpm. Each peptide was dissolved from 128 μM to 1 μM and mixed with the bacterium at 5 × 10^5 CFU/mL. In this process, bacteria with culture medium were used as the growth control group; PBS was set up as the vehicle control group; sterile culture medium was used as the blank control group; and Norfloxacin at a concentration of 2 mg/mL and amphotericin B at a concentration of 1 mg/mL were set up as the positive control group for bacteria and fungi, respectively.
(§2) After being incubated for 24 h, a Synergy HT plate reader (Bio-Tek, Shoreline, WA, USA) was used to detect the absorbance of each well in the 96-well plate at λ = 550 nm. The concentration at which no visible turbidity could be recorded was the MIC value. Beginning from the MIC value, 10 µL of solution in each clear well was dropped on the sterile agar plates. The plate was checked the next day for colony formation, and the lowest concentration at which no colony growing was recorded as an MBC value.

Series [2] has as its system C. albicans. The format is cell-based, Candida albicans. The conditions noted are these: 24 h.
Text: as §1, §2

Series [3] relates to K. pneumonia (ATCC 43816). It is filed as cell-based, Klebsiella pneumonia. The conditions noted are these: ATCC 43816, 24 h.
Text: as §1, §2

Series [4] has as its system HaCat. The format is cell-based. The conditions noted are these: 24 h. As to the method: (§3) The percentage of cancer cell survival after being treated with peptides was assessed with 3-(4,5-dimethylthiazol-2-yl-)-2,5-diphenyltetrazolium bromide (MTT). The principle is the reduction process of the yellow tetrazolium to DMSO-soluble formazan crystals caused by the metabolic capability of living cells. All the cancerous and normal cells were obtained from the American Type Culture Collection (Rockville, VA, USA). Human lung cancer NCI-H838 and NCI-H460 were cultured in Roswell Park Memorial Institute (RPMI)-1640 medium (Gibco, Paisley, UK) and mixed with 10% (v/v) fetal bovine serum (FBS) (Gibco, Campinas, Brazil) and 1% penicillin–streptomycin (Gibco, Grand Island, NY, USA) 89/10/1 v/v/v). U251MG and MCF-7 were cultured in Dulbecco’s Modified Eagle medium (DMEM) (Gibco, Paisley, UK) and mixed with 10% FBS and 1% penicillin–streptomycin. HCT 116 was cultured in McCoy’s 5A (modified) medium (Gibco, Paisley, UK) and mixed with 10% FBS and 1% penicillin–streptomycin. MRC-5 and HaCat were cultured in Minimum Essential Medium (MEM) (Gibco, Paisley, UK) and mixed with 10% FBS and 1% penicillin–streptomycin. Cells were cultured and seeded in a 96-well plate at a density of 8000 cells/well with the corresponding medium and incubated for 24 h at 37 °C with 5% CO2. After 24 h of incubation, the cells were starved with a serum-free medium for 4 h at 37 °C. Then, the cells were incubated with different concentrations of peptide solution in a serum-free medium from 1 nM to 100 µM at 37 °C for 24 h. Meanwhile, triton X-100 (0.1%) (Sigma-Aldrich, St. Louis, MO, USA) and PBS were chosen as positive and negative controls. After 10 µL of MTT (5 mg/mL) was added to each well away from light and incubated at 37 °C for 2 h, the formazan generated by mitochondria was dissolved with DMSO. The absorbance was detected at a wavelength of 570 nm by a Synergy HT plate reader (Bio-Tek, Shoreline, WA, USA).

Series [5] concerns MRC-5. The format is cell-based. The conditions noted are these: 24 h. As to the method:
as §3

Series [6] has as its system A. baumannii (BAA 747). The format is cell-based, Acinetobacter baumanni. The conditions noted are these: BAA 747, 24 h.
Text: as §1, §2

Series [7] relates to S. aureus (ATCC 6538). It is filed as cell-based, Staphylococcus aureus. The conditions noted are these: ATCC 6538, 24 h.
Text: as §1, §2

The test system of series [8] is horse red blood cells. The format is cell-based. The procedure: To assess the haemolytic activity of PSTO2 and its analogues, 2% fresh defibrinated horse red blood cells (TCS Biosciences Ltd., Buckingham, UK) were acquired after being washed and resuspended in sterile PBS. Each peptide was dissolved in PBS to prepare solutions with concentrations ranging from 2 µM to 1024 µM. Subsequently, 100 µL of each peptide solution was mixed with 100 µL of the red blood cell suspension. The red blood cells treated with 1% triton X-100 and sterile PBS in equivalent volumes were set up as the positive and negative control groups, respectively. Then, all the samples were incubated at 37 °C for 2 h. Thereafter, the samples were centrifuged at 900× g for 10 min. Finally, 100 µL of supernatant of each sample was transferred into a 96-well plate, and the absorbance was recorded by a Synergy HT plate reader (Bio-Tek, Shoreline, WA, USA) at a wavelength of 570. The following equation was used to calculate haemolysis activity:Haemolysis activity = (Sample absorbance − Ab)/(Ap − Ab) × 100% where Ab refers to the mean value of absorbance of the negative control (incubated with PBS only), and Ap refers to the mean absorbance value of the positive control (incubated with triton X-100).

For series [9], the system named is E. coli (ATCC 8739). The format is cell-based, Escherichia coli. The conditions noted are these: ATCC 8739, 24 h.
Text: as §1, §2

Regarding `CC[C@H](C)[C@H](NC(=O)[C@H](C)NC(=O)[C@@H](CCCCN)NC(=O)[C@@H]1CCCN1C(=O)[C@@H](NC(=O)[C@H](CC(C)C)NC(=O)[C@H](CO)NC(=O)[C@H](CC(C)C)NC(=O)[C@@H](N)Cc1ccccc1)[C@@H](C)CC)C(=O)N[C@@H](CCCCN)C(=O)N[C@@H](C)C(=O)N[C@H](C(=O)N[C@@H](CCCCN)C(=O)N[C@@H](C)C(=O)N[C@@H](CC(C)C)C(=O)N[C@@H](C)C(=O)N[C@@H](CCCCN)C(=O)N[C@H](CCCCN)C(=O)N[C@@H](CC(C)C)C(N)=O)C(C)C` [SR2D10] (H-FLSLIP[dK]AIKAVKALAK[dK]L-NH2), the MBC is 1/1 μM in [1]; 128 µM in series [2]; 4 µM in series [3]; 16/16 μM in series [6]; 1/1 μM in [7]; 2 µM in [9]. For the same compound, the MIC is 64 µM in series [2], 4 µM in series [3], 16/16 μM in series [6] and 2 µM in [9]. Further, the IC50 in series [4] stood at 84.03 µM; in series [5], 74.39 µM. Also, the HC10 in [8] was determined as 75.24.

For `CC[C@H](C)[C@H](NC(=O)[C@H](C)NC(=O)[C@@H](CCCCN)NC(=O)[C@@H]1CCCN1C(=O)[C@@H](NC(=O)[C@H](CC(C)C)NC(=O)[C@H](CO)NC(=O)[C@H](CC(C)C)NC(=O)[C@@H](N)Cc1ccccc1)[C@@H](C)CC)C(=O)N[C@@H](CCCCN)C(=O)N[C@@H](C)C(=O)N[C@H](C(=O)N[C@@H](CO)C(=O)N[C@@H](C)C(=O)N[C@@H](CC(C)C)C(=O)N[C@@H](C)C(=O)N[C@@H](CCCCN)C(=O)N[C@@H](CCCCN)C(=O)N[C@@H](CC(C)C)C(N)=O)C(C)C` [SRD7] (H-FLSLIP[dK]AIKAVSALAKKL-NH2), the MBC was 2 µM in series [1]; 64 µM in [2]; 16/16 μM in [6]; 1/1 μM in [7]; 2 µM in series [9]. Also, the results for the MIC in series [1], in series [2] and in [9] were 1 µM, 32 µM and 2 µM, respectively. Also, the results for the IC50 in [4] and in [5] were 77.89 µM and 77.28 µM, respectively. Further, the HC10 in series [8] is given as 74.78.

Take FLSLIPKAIKAVKALAKKL-NH2 [SR2]: the MBC in series [1] was 2 µM; in series [2], 64 µM; in series [3], 2 µM; in [6], 2/2 μM; in series [7], 2 µM; in series [9], 2 µM. Also, the MIC stood at 2 µM in series [1]; 32 µM in [2]; 2 µM in series [3]; 2 µM in series [7]; 2 µM in series [9]. The IC50 stood at 3.48 µM in series [4] and 6.56 µM in series [5]. The HC10 in series [8] amounted to 6.53.

Take FLSLIPKAIKAVSALAKKL-NH2 [SR]: the MBC in series [1] is 2 µM; in series [2], 128 µM; in series [3], 2 µM; in series [6] it was 4/4 μM; in series [7], 2 µM; in series [9], 2 µM. In addition, the MIC was 2 µM in series [1]; 32 µM in [2]; 2 µM in series [3]; 2 µM in [7]; 2 µM in series [9]. The half-maximal inhibitory concentration (IC50) in [4] stood at 4.13 µM; in series [5], 6.98 µM. Moreover, the HC10 in series [8] is on record as 12.60.

(Values after publication PMC11360180, “Enhancement of Antimicrobial Function by L/D-Lysine Substitution on a Novel Broad-Spectrum Antimicrobial Peptide, Phylloseptin-TO2: A Structure-Related Activity Research Study” (Pharmaceutics, 2024).)
